Assay results: PubChem BioAssay (NCI)
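Briefly, cells in 96-well plates were exposed to five compound concentrations for 48 h, and endpoints were estimated by linear interpolation. Abbreviation: GI50, concentration required for 50% inhibition of growth. TGI: total growth inhibition.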

Columns and labels:
Assay in all cases: NCI-60 cell line screen, 48 h
HL-60(TB) leukemia = system: HL-60(TB) leukemia
HCT-15 colon = system: HCT-15 colon
NCI-H23 lung = system: NCI-H23 lung
OVCAR-5 ovarian = system: OVCAR-5 ovarian
LOX IMVI melanoma = system: LOX IMVI melanoma
M14 melanoma = system: M14 melanoma
MOLT-4 leukemia = system: MOLT-4 leukemia
NCI-H522 lung = system: NCI-H522 lung
SNB-19 CNS = system: SNB-19 CNS
CCRF-CEM leukemia = system: CCRF-CEM leukemia

Structure (SMILES) | GI50 (HL-60(TB) leukemia) | TGI (HL-60(TB) leukemia) | GI50 (HCT-15 colon) | TGI (HCT-15 colon) | GI50 (NCI-H23 lung) | TGI (NCI-H23 lung) | GI50 (OVCAR-5 ovarian) | TGI (OVCAR-5 ovarian) | GI50 (LOX IMVI melanoma) | TGI (LOX IMVI melanoma) | GI50 (M14 melanoma) | TGI (M14 melanoma) | GI50 (MOLT-4 leukemia) | TGI (MOLT-4 leukemia) | GI50 (NCI-H522 lung) | TGI (NCI-H522 lung) | GI50 (SNB-19 CNS) | TGI (SNB-19 CNS) | GI50 (CCRF-CEM leukemia) | TGI (CCRF-CEM leukemia)
O=C1Nc2ccccc2/C1=C/C(=O)c1coc2c1C(=O)c1ccccc1C2=O | > 100 µM | > 100 µM | > 100 µM | > 100 µM | > 100 µM | > 100 µM | > 100 µM | > 100 µM | > 100 µM | > 100 µM | > 100 µM | > 100 µM | 62.3 µM | > 100 µM | > 100 µM | > 100 µM | > 100 µM | > 100 µM | > 100 µM | > 100 µM
Oc1c(C(Nc2cccc3cccnc23)c2ccccc2)ccc2cccnc12 (stereo not given) |  | 7.58 µM |  |  |  | > 100 µM |  | > 100 µM |  | > 100 µM |  |  |  | > 100 µM |  | 73.8 µM |  | > 100 µM |  | 78.8 µM
COc1ccc(C(=O)c2cc(OC)c(OC)c(OC)c2)cc1OC(=O)CCl | < 0.0152 µM | < 0.025 µM | < 0.0132 µM | > 100 µM | 0.0653 µM | > 100 µM | 3.61 µM | > 100 µM | < 0.0199 µM | > 100 µM | < 0.0142 µM |  | < 0.0209 µM | > 100 µM | 0.0196 µM | > 100 µM | < 0.0283 µM | > 100 µM | 0.0297 µM | > 100 µM
O=[N+]([O-])c1cc(C(F)(F)F)cc([N+](=O)[O-])c1CCl |  | 3.21 µM |  |  |  | 5.7 µM |  | 10.1 µM |  | 0.274 µM |  | 1.59 µM |  | 1.39 µM |  | 0.812 µM |  | 19.9 µM |  | 0.722 µM
COc1cnc2c(c1)C(=O)c1c-2n(CCCn2ccnc2)c(=O)c2cc(F)ccc12 | 0.0363 µM | 0.311 µM | 0.155 µM | 1.56 µM | 0.0171 µM | 0.565 µM | 0.119 µM | 0.789 µM | < 0.01 µM | 0.128 µM | < 0.01 µM | 0.635 µM | < 0.01 µM | 0.131 µM | < 0.01 µM | 0.169 µM | < 0.01 µM | 11.4 µM |  | 
C[C@H]1[C@H](C)CC[C@]2(CO)CC[C@]3(C)C(=CC[C@@H]4[C@@]5(C)CCCNC(C)(C)[C@@H]5CC[C@]43C)[C@H]12 |  |  | 1.37 µM | 2.75 µM | 1.65 µM | 3.26 µM | 1.69 µM | 3.18 µM | 1.59 µM | 3.05 µM | 1.61 µM | 3.12 µM | 1.37 µM | 3.15 µM | 1.71 µM | 3.32 µM | 1.86 µM | 3.43 µM | 1.74 µM | 3.93 µM
COc1cc(C(=O)O[C@H](C(=O)NCCCCCNC(=O)[C@@H](OC(=O)c2cc(OC)cc3c(C)cccc23)[C@]2(C)CO2)[C@]2(C)CO2)c2cccc(C)c2c1 |  |  | 0.174 µM | 2.13 µM | 0.179 µM | 0.665 µM | 1.52 µM | 5.61 µM | < 0.01 µM | < 0.0138 µM |  | 0.305 µM | < 0.01 µM | > 100 µM | 0.565 µM | > 22.3 µM | 0.93 µM | > 20.4 µM |  | 
CP1(=O)CCCCC1 |  | > 100 µM |  | > 100 µM |  | > 100 µM |  | > 100 µM |  | > 100 µM |  | > 100 µM |  | > 100 µM |  |  |  | > 100 µM |  | > 100 µM
COc1cc([N+](=O)[O-])c(OC)cc1-c1nc2sc(Cl)cn2c1/C(N)=N/C(=N)N |  |  | 65 µM | > 100 µM | 3.43 µM | 10.8 µM | 19.7 µM | 45.4 µM | 4.44 µM | > 100 µM | 3.51 µM | 13 µM | 3.09 µM | > 100 µM | 2.35 µM | 5.49 µM | 3.91 µM | > 100 µM |  | 
COc1cc(NC(C)CCCNC2CN3CCC2CC3)c2ncccc2c1 (stereo not given) | 2.86 µM | 11 µM | 11.5 µM | 27.3 µM | 13.8 µM | 29.6 µM | 14.5 µM | 28.3 µM | 9.6 µM | 25 µM | 3.92 µM | 13.5 µM | 12.8 µM | 31.8 µM |  |  | 15.8 µM | 32 µM | 19 µM | > 100 µM
C(#Cc1ccccc1C#Cc1cccs1)c1cccs1 |  |  | 24.6 µM | > 100 µM | 51.6 µM | > 100 µM | 25.6 µM | 83.2 µM | 23.7 µM | 53.8 µM | 32.9 µM | > 100 µM | 25.8 µM | 80.1 µM | 34.2 µM | > 100 µM | > 100 µM | > 100 µM | 31.9 µM | > 100 µM
COc1cc2ccc(/C=C\[N+](=O)[O-])cc2cc1OC |  | 5.07 µM |  | 17.2 µM |  | 6.98 µM |  | 30.3 µM |  | 3.42 µM |  | 7.41 µM |  | 19.1 µM |  | 3.4 µM |  | 27.7 µM |  | 
CC(C)C1CC[C@@H](C)C[C@@]1(O)CC(N)=O (stereo not given in full) |  |  |  | > 100 µM |  | > 100 µM |  | > 100 µM |  |  |  | > 100 µM |  | > 100 µM |  | > 100 µM |  | > 100 µM |  | 
COc1ccc(C(=O)OC2C(OC3C(O)COC(O[C@H]4C[C@H]5[C@@H]6CC=C7C[C@@H](O)CC[C@]7(C)[C@H]6CC[C@]5(C)[C@H]4[C@H](C)C(=O)CCC(C)C)C3OC(N)=O)OCC(O)C2O)cc1 (stereo not given in full) |  |  | 1.04 µM | 5.44 µM | 0.375 µM | 4.81 µM | 0.555 µM | 6.48 µM | 0.0137 µM | 0.158 µM | 0.036 µM | 0.183 µM | 0.00564 µM | 0.0212 µM | 0.0658 µM | 0.485 µM | 0.381 µM | 3.2 µM | < 0.003 µM | 0.0966 µM
COc1cc2c(cc1C)NC(=O)/C2=C/c1ccccn1 | 5.35 µM | > 100 µM |  |  | 2.76 µM | 9.1 µM | 3.46 µM | 43.9 µM | 3.25 µM | 10.4 µM | 3.8 µM | > 100 µM | 4.28 µM | > 100 µM | 3.37 µM | > 100 µM | 4.07 µM | > 100 µM | 0.782 µM | > 100 µM
